Holding throughout (type): in vivo
The test system of data set [1] is cue-induced reinstatement of alcohol-seeking behavior in Wistar rats. The data set can be described thus: Cue-induced reinstatement of alcohol-seeking behavior. Particulars: 10 mg/kg IP. The source says: Operant alcohol self-administration training. Male Wistar rats (n=12) were trained to self-administer alcohol in two-lever operant conditioning chambers as described above. A total of n=11 rats completed the experiment. […] Fluid cups were inspected at the end of each session to verify intake. Extinction.
Cue-induced reinstatement test. On the next day, rats were given a reinstatement test in which lever press responses were followed by presentation of the cue light and auditory pump sound (as during training) but in the absence of ethanol reinforcement to examine cue-induced alcohol-seeking behavior (see Cue-induced reinstatement method FIG. 9A, right panel). One hour prior to the reinstatement session rats were divided into 2 equal subgroups groups and administered Compound 1 (0 or 10 mg/kg, IP) to determine if Compound 1 alters cue-induced reinstatement of alcohol-seeking behavior as compared to vehicle control. Groups were matched on body weight, baseline response totals, and extinction performance prior to drug testing. After this test, rats were returned to baseline conditions. […]

Data set [2] concerns voluntary home-cage alcohol drinking by Wistar rats. Description: Home-cage alcohol drinking, repeated treatment (A-B-A design). Here is the method: Home-cage alcohol drinking method. Oral alcohol and water intake were examined using a two-bottle choice protocol, which is standard in the field and commonly used in our laboratory. Male Wistar rats (n=12) were first adapted to drinking from a 50 ml conical tube fitted with a standard stainless-steel ball bearing sipper tube that limits spillage. Then, two bottles were place on the cage daily. One bottle contained an alcohol solution and the other contained water. Bottles containing fresh solutions were weighed daily before and after a 24 hr access period. After drug treatment, bottles were weighed after 1 hr and 24 hrs of access. Each week, rats had 4-5 days of sweetened alcohol and water available and the remaining days only water.
Briefly, rats were first exposed to alcohol (10% v/v)+sucrose (5% w/v). versus water in the two bottles. Then, over a period of 6-weeks, the concentrations of alcohol and sucrose were gradually adjusted to alcohol (8% v/v)+sucrose (2% w/v) to achieve intake of pharmacologically relevant doses of alcohol. Rats were maintained at this concentration for the duration of the experiment for both acute (3.1.a) and chronic (3.1.b) home-cage drinking studies. Use of sweetened alcohol solutions in preclinical research provides face validity to the binge-intoxication stage of alcohol addiction in humans where sweeteners are commonly added to alcohol.
Repeated treatment with Compound 1. To evaluate effects of repeated treatment with Compound 1 on home-cage alcohol drinking, baseline intake of sweetened alcohol and water, and habituation to i.p. injections was conducted as described above in a separate group of male Wistar rats (n=12). During habituation to i.p. injections, rats were moved to a 7 day per week alcohol access schedule to allow for chronic daily treatment. Rats were then administered vehicle (4 consecutive days), Compound 1 (3 mg/kg, 7 consecutive days), then vehicle (4 consecutive days) according to an A-B-A experimental design for a total of 15 days. Access to alcohol was provided 1-hr after vehicle or Compound 1 injection. Alcohol and water intake were measured as described above after 1-hr and 24-hrs of access.

Data set [3] has as its system operant alcohol self-administration in Wistar rats. The data set can be described thus: Operant alcohol self-administration (FR-1), acute treatment. Also noted: alcohol reinforced lever press responses: dose or concentration left out as unconfirmed. Conditions: 1-h pretreatment. The source says: Twelve operant conditioning chambers designed for rats (30.5 cm×24.1 cm×21.0 cm; Med Associates, Georgia, VT) were located within sound-attenuating cubicles in a devoted room to limit extraneous potential impact by extraneous environmental variables. Each cubicle was equipped with an exhaust fan that provided ventilation and masked external sounds. The chambers were electronically interfaced to a Microsoft Windows based computer that was programmed using investigator developed software to control sessions and record number of lever press responses at 100-ms intervals.
The right wall of each chamber contained a liquid receptacle and a response lever (Med Associates) that was termed the active lever. Lever press responses on the active lever activated a syringe pump (PHM-100, Med Associates) that delivered 0.1 ml of alcohol solution (ethanol 8% v/v+sucrose 2% w/v) into the receptacle over a 1.66-s period. Head entries into the liquid receptacle were recorded when an infrared photo beam was broken. A stimulus light located above the response lever was illuminated during pump activation. Lever presses during reinforcer delivery were recorded but produced no programmed consequence. […] Behavior on this lever serves as a control for motor disruptions and other nonspecific effects of test compounds. […]
Testing the efficacy of Compound 1 to reduce the reinforcing, or rewarding, effects of alcohol. Following establishment of stable baseline self-administration behavior, effects of pre-session treatment with the novel mGluR5 negative allosteric modulator Compound 1 (0, 0.3, 1, 3, and 10 mg/kg, IP) were evaluated on operant alcohol self-administration behavior (n=12 rats). […] Parameters of operant performance were measured, including total lever press responses, number of headpokes into the liquid receptacle, and rate of operant responding, which is a direct measure of positive reinforcement function. […]

The structures appear in SMILES notation.

This is an account of results in US20250249001A1, “METHODS OF TREATING SUBSTANCE USE DISORDER WITH 4-(3-CYANOPHENYL)-6-PYRIDINYLPYRIMIDINE MGLU5 NEGATIVE ALLOSTERIC MODULATORS” (Tempero Bio, Inc., priority 2022, published 2025).

`N#Cc1cc(Cl)cc(-c2cc(-c3ccc(F)cn3)ncn2)c1` [Compound 1, 3-chloro-5-[6-(5-fluoropyridin-2-yl)pyrimidin-4-yl]benzonitrile]: the “cue-induced reinstatement, total responses on the previously active lever” value in data set [1] (one hour prior to reinstatement session) is recorded as “blocked”. Also, the “cue-induced reinstatement, responding relative to extinction performance” value in data set [1] (vehicle ~400% of extinction level) is “fully blocked”. Further, in data set [2] (3 mg/kg i.p. daily for 7 days), the “H2O intake, 1-hr access, averaged across the 3 experimental phases” value is “decreased water intake”; the “H2O intake, 24-hrs access, averaged across the experimental phases” value is recorded as “reduction in H2O intake as compared to the first vehicle condition only”; the “alcohol intake, 24-hr access, averaged over each treatment condition” value is “no effect”; the “average alcohol intake over the 7-day treatment phase, 1-hr access, vs Veh-1 and Veh-2” value is listed as “significantly decreased alcohol intake”. Moreover, in data set [2] (3 mg/kg i.p. daily, days 5-11), the “H2O intake, 1-hr access, individual treatment days” value was “failed to identify a significant change at a particular treatment day”; the “H2O intake, 24-hrs access, individual treatment days” value was “significant reductions in H2O intake at days 7 and 11”; the “alcohol intake, 1-hr access, individual treatment days vs day 4 vehicle” value was “reduced alcohol intake only on day 5”; the “alcohol intake, 24-hr access, individual treatment days vs day 4 vehicle” value is reported as “reduced alcohol intake only on day 5”. For the same compound, in data set [3] (10 mg/kg IP), the “EtOH reinforced responses vs vehicle, multiple comparisons” value is “reduced EtOH reinforced responses”. In data set [3] (IP (so in the source), 15-min test sessions), the “alcohol reinforced lever press responses” value is “reduced alcohol reinforced lever press responses in a dose-dependent manner”.
